A short description of data set [1]: Cell viability of B16 melanoma 4A5 cells. It is filed as cell-based, murine. Conditions: mouse, B16 4A5 cells. As for the experimental part: (§1) The effects on theophylline-stimulated melanogenesis and viability of B16 melanoma 4A5 cells were examined according to previously described protocols. Briefly, murine B16 melanoma 4A5 cells were seeded into 48-well plates in DMEM. After 24 h of culture, a test compound and theophylline (1 mM) were added and incubated for 72 h. The melanin content and cell viability were then measured. IC50 values were determined graphically.

Data set [2] can be described thus: Stability in aqueous solution at elevated temperature (HPLC residual ratio). The format is physicochemical. To be noted: 20 mg/mL at 125 °C in the dark, after 3 h. The protocol: To determine stability, the samples were stored at 125 °C, and the residual ratio was calculated by measuring the remaining compound by HPLC. HPLC mobile phase conditions were as follows: AsA was described previously, 6 and 20 were 40% methanol containing 0.1% formic acid at flow rate of 0.2 mL/min [52, 53].

A further data set concerns B16 melanoma 4A5 cells. Kind of data set: Theophylline-stimulated melanogenesis inhibition (melanin content). It is filed as cell-based, murine. Conditions: for IC50: theophylline (1 mM)-stimulated B16 melanoma 4A5 cells. The protocol:
as §1
Inhibition (%) was calculated using the following formula, where A and B indicate the optical density of the vehicle- and test compound-treated groups, respectively, and C indicates cell viability (%) (see below): Inhibition (%) = [(A − B)/A]/(C/100) × 100.

In another data set the test system is TRP-2 mRNA. Kind of data set: Expression of TRP-2 mRNA (qRT-PCR). The format is cell-based, murine. Conditions: B16 4A5 cells, theophylline 1 mM, 72 h. As for the experimental part:
(§2) The expression of tyrosinase, TRP-1, and TRP-2 mRNA was assessed according to previously reported methods. Briefly, murine B16 melanoma 4A5 cells were seeded into 96-well plates in DMEM. After 24 h of culture, a test compound and theophylline (1 mM) were added and incubated for 72 h. Then, the amount of each mRNA was quantified by quantitative reverse transcription PCR.
On the technique in general: Quantitative PCR measures a nucleic acid by following its amplification.

A further data set deals with TRP-1 mRNA. As to the kind of experiment: Expression of TRP-1 mRNA (qRT-PCR). It is filed as cell-based, murine. Conditions: B16 4A5 cells, theophylline 1 mM, 72 h. As for the experimental part: as §2
Another data set deals with tyrosinase from mushroom. Kind of data set: Mushroom tyrosinase activity. The format is biochemical. As for the experimental part:
Tyrosinase activities using L-tyrosine or L-DOPA as a substrate were determined according to the protocols described previously. Briefly, samples, L-tyrosine (2.5 mM, or L-DOPA, 3.0 mM), mushroom tyrosinase (46 units/mL), and phosphate buffer were mixed in a 96-well plate and incubated at 25 °C. (L-tyrosine; 30 min, L-DOPA; 5 min). The absorbance was then measured at 492 nm.

For another data set, the system named is tyrosinase mRNA. As to the kind of experiment: Expression of tyrosinase mRNA (qRT-PCR). It is filed as cell-based, murine. To be noted: B16 4A5 cells, theophylline 1 mM, 72 h. As for the experimental part: as §2
The test system of another data set is tyrosinase protein. Kind of data set: Expression of tyrosinase protein (western blotting). The format is cell-based, murine. To be noted: B16 4A5 cells, theophylline 1 mM, 72 h. The protocol: The expression of tyrosinase protein was assessed according to a previously reported method. Briefly, murine B16 melanoma 4A5 cells were seeded into 6-well plates in DMEM. After 24 h of culture, a test compound and theophylline (1 mM) were added and incubated for 72 h. The expression of tyrosinase protein then was measured by western blotting.
In general terms: In western blotting, separated proteins are transferred to a membrane and probed.

Where [3] appears, read: Mus musculus, theophylline-stimulated B16 4A5 cells, 72 h.

What is called viability is a read-out of living cells in per cent, often relative to untreated cells. The inhibition is the change of the read-out against control, counted positive when it falls. As usually defined, the IC50 is the concentration that gives 50% inhibition. The low end stands for inhibition by little substance, the high end for a need for much substance. As for `O=C1O[C@H]([C@@H](O)CO)C(O)=C1O` [AsA, L-ascorbic acid], in data set [1], the viability at 72 h, 1000 µM turned out to be 104% and the viability at 72 h, 3000 µM is 89.2%. The “Residual ratio in aqueous solution” value in data set [2] was 9%. Also, in the data set with B16 melanoma 4A5 cells (setting [3]), the inhibition at 1000 µM is -17.4 ± 4% and the inhibition at 3000 µM worked out at 3.8 ± 4.7%. The compound also showed an IC50 in the data set with B16 melanoma 4A5 cells (Mus musculus, 72 h) above 3000 µM.
Turning to `CCCCCCCCCCCCCCOC1=C(OCC(O)CO)[C@@H]([C@@H](O)CO)OC1=O` (some centres unmarked) [compound 14, 3-O-(2,3-dihydroxypropyl)-2-O-tetradecyl-AsA], in the data set with TRP-2 mRNA (3 µM), the “TRP-2 mRNA/β-actin mRNA” value amounted to 0.58 ± 0.06. In addition, the “TRP-1 mRNA/β-actin mRNA” value in the data set with TRP-1 mRNA (3 µM) turned out to be 1.02 ± 0.27. Further, in the data set with TRP-1 mRNA (10 µM), the “TRP-1 mRNA/β-actin mRNA” value came out at 0.92 ± 0.22. Moreover, in data set [1], the viability at 72 h, 3 µM came to 101%; the viability at 72 h, 10 µM came out at 89.1%; the viability at 72 h, 30 µM was 56.3%; the viability at 72 h, 100 µM amounted to 21%. Moreover, the “Inhibition (%) of mushroom tyrosinase” value with tyrosinase from mushroom (Substrate: L-DOPA, 10 µM) is given as −8.9 ± 3.5%. Moreover, in the data set on tyrosinase from mushroom (Substrate: L-DOPA, 30 µM), the “Inhibition (%) of mushroom tyrosinase” value is on record as −8.2 ± 4.3%. Further, the “Inhibition (%) of mushroom tyrosinase” value in the data set with tyrosinase from mushroom (Substrate: L-Tyrosine, 10 µM) is on record as −7.0 ± 6.7%. Moreover, in the data set on tyrosinase from mushroom (Substrate: L-Tyrosine, 30 µM), the “Inhibition (%) of mushroom tyrosinase” value is given as −9.7 ± 2.7%. Further, in the data set on B16 melanoma 4A5 cells (setting [3]), the inhibition at 3 µM came out at 6.3 ± 2.6%, the inhibition at 10 µM amounted to 48.4 ± 2.2%, the inhibition at 30 µM is 97.6 ± 1.8% and the inhibition at 100 µM turned out to be 100 ± 18.2%. Also, in the data set on B16 melanoma 4A5 cells (Mus musculus, 72 h), half-maximal inhibition (IC50) was put at 11.1 µM. The “Tyrosinase mRNA/β-actin mRNA” value with tyrosinase mRNA (3 µM) amounted to 0.78 ± 0.10.
For the compound `CCCCCCOC1=C(OCC(O)CO)C(=O)O[C@@H]1[C@@H](O)CO` (some centres unmarked) [compound 20, 2-O-(2,3-dihydroxypropyl)-3-O-hexyl-AsA], the “expression of tyrosinase protein (in words)” value in the data set with tyrosinase protein is reported as “suppressed tyrosinase protein expression in a concentration-dependent manner”. In addition, the “TRP-2 mRNA/β-actin mRNA” value worked out at 1.07 ± 0.30 in the data set on TRP-2 mRNA (30 µM) and 0.88 ± 0.25 in the data set with TRP-2 mRNA (100 µM). Further, the “TRP-1 mRNA/β-actin mRNA” value in the data set with TRP-1 mRNA (30 µM) was determined as 0.67 ± 0.12. The viability at 72 h, 100 µM in data set [1] is 95.3%. Further, the viability at 72 h, 300 µM in data set [1] (300 µM) worked out at 83.9%. In data set [1], the viability at 72 h, 1000 µM came to 60.8%. Further, in data set [1], the viability at 72 h, 3000 µM came out at 44.7%. Besides, the “Inhibition (%) of mushroom tyrosinase” value in the data set on tyrosinase from mushroom (Substrate: L-DOPA, 30 µM) is −5.7 ± 5.1%; in the data set on tyrosinase from mushroom (Substrate: L-DOPA, 100 µM), −2.4 ± 4.2%; in the data set with tyrosinase from mushroom (Substrate: L-Tyrosine, 30 µM), 1.4 ± 4.7%; in the data set on tyrosinase from mushroom (Substrate: L-Tyrosine, 100 µM), −6.1 ± 0.6%. Moreover, the “Residual ratio in aqueous solution” value in data set [2] is on record as 82%. In the data set with B16 melanoma 4A5 cells (setting [3]), the inhibition at 100 µM is 43.5 ± 2.6%. In the data set with B16 melanoma 4A5 cells (Mus musculus, 300 µM, theophylline-stimulated B16 4A5 cells, 72 h), the inhibition at 300 µM was 77 ± 2.1%. Also, the inhibition at 1000 µM with B16 melanoma 4A5 cells (setting [3]) came out at 94.9 ± 1.5%. The inhibition at 3000 µM in the data set with B16 melanoma 4A5 cells (setting [3]) stood at 80.9 ± 4.1%. The compound also registered an IC50 with B16 melanoma 4A5 cells (Mus musculus, 72 h) of 117 µM. The “Tyrosinase mRNA/β-actin mRNA” value in the data set on tyrosinase mRNA (30 µM) was found to be 0.72 ± 0.10.
On to `CCCCCCCCCCCCOC1=C(OCC(O)CO)C(=O)O[C@@H]1[C@@H](O)CO` (some centres unmarked) [compound 26, 2-O-(2,3-dihydroxypropyl)-3-O-dodecyl-AsA], for which, in data set [1], the viability at 72 h, 3 µM came to 99.8%; the viability at 72 h, 10 µM was 87.3%; the viability at 72 h, 30 µM worked out at 45.5%; the viability at 72 h, 100 µM worked out at 24.3%. For the same compound, in the data set with tyrosinase from mushroom (Substrate: L-DOPA, 10 µM), the “Inhibition (%) of mushroom tyrosinase” value is reported as −6.4 ± 3.1%. Also, the “Inhibition (%) of mushroom tyrosinase” value in the data set with tyrosinase from mushroom (Substrate: L-DOPA, 30 µM) is given as −6.6 ± 8.7%. The “Inhibition (%) of mushroom tyrosinase” value with tyrosinase from mushroom (Substrate: L-Tyrosine, 10 µM) was −2.2 ± 6.4%. Moreover, the “Inhibition (%) of mushroom tyrosinase” value in the data set on tyrosinase from mushroom (Substrate: L-Tyrosine, 30 µM) is recorded as −0.5 ± 4.3%. In the data set with B16 melanoma 4A5 cells (setting [3]), the inhibition at 3 µM worked out at 14.1 ± 8.5%, the inhibition at 10 µM stood at 46 ± 3%, the inhibition at 30 µM stood at 96.2 ± 2.8% and the inhibition at 100 µM came out at 89.6 ± 24.4%. For the same compound, the concentration for half-maximal inhibition (IC50) in the data set on B16 melanoma 4A5 cells (Mus musculus, 72 h) was 12.1 µM.
Turning to `CCCCCCCCCCCCCOC1=C(OCC(O)CO)C(=O)O[C@@H]1[C@@H](O)CO` (some centres unmarked) [compound 27, 2-O-(2,3-dihydroxypropyl)-3-O-tridecyl-AsA], in data set [1], the viability at 72 h, 3 µM was 105%; the viability at 72 h, 10 µM amounted to 84.3%; the viability at 72 h, 30 µM came to 40.2%; the viability at 72 h, 100 µM was found to be 21%. In addition, the “Inhibition (%) of mushroom tyrosinase” value in the data set on tyrosinase from mushroom (Substrate: L-DOPA, 10 µM) is listed as −2.0 ± 3.3%. Further, the “Inhibition (%) of mushroom tyrosinase” value in the data set with tyrosinase from mushroom (Substrate: L-DOPA, 30 µM) was −3.2 ± 2.7%. The “Inhibition (%) of mushroom tyrosinase” value in the data set with tyrosinase from mushroom (Substrate: L-Tyrosine, 10 µM) is recorded as −3.3 ± 8.1%. Also, the “Inhibition (%) of mushroom tyrosinase” value with tyrosinase from mushroom (Substrate: L-Tyrosine, 30 µM) was −5.4 ± 1.9%. Further, in the data set on B16 melanoma 4A5 cells (setting [3]), the inhibition at 3 µM amounted to 20.1 ± 5.7%, the inhibition at 10 µM came out at 44.2 ± 3.9%, the inhibition at 30 µM turned out to be 96.6 ± 3% and the inhibition at 100 µM is 113 ± 10.1%. Also, in the data set on B16 melanoma 4A5 cells (Mus musculus, 72 h), half-maximal inhibition (IC50) was put at 11.7 µM.
In the case of `CCCCCCCCCCCCCCOC1=C(OCC(O)CO)C(=O)O[C@@H]1[C@@H](O)CO` (some centres unmarked) [compound 28, 2-O-(2,3-dihydroxypropyl)-3-O-tetradecyl-AsA], in the data set with TRP-2 mRNA (3 µM), the “TRP-2 mRNA/β-actin mRNA” value came out at 0.43 ± 0.11. Further, the “TRP-1 mRNA/β-actin mRNA” value with TRP-1 mRNA (3 µM) amounted to 0.88 ± 0.20. Besides, in the data set on TRP-1 mRNA (10 µM), the “TRP-1 mRNA/β-actin mRNA” value came to 0.83 ± 0.27. Also, in data set [1], the viability at 72 h, 3 µM amounted to 85.1%; the viability at 72 h, 10 µM turned out to be 62.6%; the viability at 72 h, 30 µM came to 23%; the viability at 72 h, 100 µM was found to be 18.1%. Moreover, the “Inhibition (%) of mushroom tyrosinase” value in the data set on tyrosinase from mushroom (Substrate: L-DOPA, 10 µM) is −5.7 ± 9.5%. Moreover, the “Inhibition (%) of mushroom tyrosinase” value with tyrosinase from mushroom (Substrate: L-DOPA, 30 µM) is recorded as −8.1 ± 5.2%. In addition, the “Inhibition (%) of mushroom tyrosinase” value in the data set on tyrosinase from mushroom (Substrate: L-Tyrosine, 10 µM) was −4.4 ± 4.6%. Also, the “Inhibition (%) of mushroom tyrosinase” value in the data set on tyrosinase from mushroom (Substrate: L-Tyrosine, 30 µM) was −8.4 ± 1.0%. Moreover, in the data set on B16 melanoma 4A5 cells (setting [3]), the inhibition at 3 µM stood at 32.8 ± 7.2%, the inhibition at 10 µM was 75.7 ± 3.9%, the inhibition at 30 µM came out at 95.9 ± 8.4% and the inhibition at 100 µM came out at 95.2 ± 20.7%. The compound further displayed an IC50 in the data set on B16 melanoma 4A5 cells (Mus musculus, 72 h) of 5 µM. Besides, the “potency relative to arbutin (melanogenesis inhibition)” value in the data set with B16 melanoma 4A5 cells (ratio of IC50 values vs arbutin) is listed as “more than 166 fold”. In addition, in the data set on tyrosinase mRNA (3 µM), the “Tyrosinase mRNA/β-actin mRNA” value stood at 0.54 ± 0.03.

The values are drawn from publication PMC5979531, “Structural Requirements of Alkylglyceryl-L-Ascorbic Acid Derivatives for Melanogenesis Inhibitory Activity” (International Journal of Molecular Sciences, 2018).
